Results from patent US7855292B2, “Sulfonamide compounds” (Janssen Pharmaceutica NV, priority 2004, dated 2010).

What was measured:
[1] = target: T1, CCK-1 receptor (Homo sapiens, UniProt P32238); experiment: CCK1 binding assay ([125I]-BH-CCK-8S displacement, CHO-K1 membranes); settings: membranes of CHO-K1 cells stably transfected with the CCK-1 receptor, 20 pM [125I]-BH-CCK-8S, 0.3 μM PD-134,308 present, 60 min at 21±3° C.; for Ki: read-out: CCK1 pKi (converted)
T1 construct: expressed in transfected cells; host or cells: CHO-K1
T1 sequence (P32238 1-428): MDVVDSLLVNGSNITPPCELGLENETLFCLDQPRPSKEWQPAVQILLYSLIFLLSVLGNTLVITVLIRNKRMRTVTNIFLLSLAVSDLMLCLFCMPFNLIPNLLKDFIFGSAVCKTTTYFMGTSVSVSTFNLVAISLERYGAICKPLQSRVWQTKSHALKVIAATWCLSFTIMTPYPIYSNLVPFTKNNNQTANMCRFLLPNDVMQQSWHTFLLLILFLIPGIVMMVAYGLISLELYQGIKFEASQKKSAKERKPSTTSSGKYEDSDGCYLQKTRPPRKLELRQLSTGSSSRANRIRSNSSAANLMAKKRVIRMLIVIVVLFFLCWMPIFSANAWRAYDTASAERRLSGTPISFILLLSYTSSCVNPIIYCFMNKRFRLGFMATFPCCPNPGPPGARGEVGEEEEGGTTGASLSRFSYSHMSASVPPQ
Description: 1. CCK1 Assay Development and Data Generation
CHO-K1 cells that had undergone stable transfection with the CCK-1 receptor were grown in DMEM supplemented with L-glutamine (2 mM), penicillin (50 units/mL) and streptomycin (50 μg/mL). Cells were cultured under continuous G418 selection (2 mM) and were harvested using a rubber cell scraper. CHO-K1 cells were sub-cultured a maximum of ten times before being reseeded from the original stocks.
Membranes were prepared from the stably transfected CHO-K1 cells. Frozen cell pellets (−40° C.) were thawed in 14 mL of buffer A (10 mM HEPES, 130 mM NaCl, 4.7 mM KCl, 5 mM MgCl, 1 mM EGTA and 15.4 mg/100 mL bacitracin at pH 7.2), adapted from Harper et al. (Br. J. Pharmacol. 1996, 118:1717-1726). The thawed pellets were homogenized using a Polytron PT-10 (7×1 s). The homogenates were centrifuged for 5 min at 1500 rpm (600×g), and the resulting pellets were discarded. The supernatants were re-centrifuged in order to collect the receptor-membrane pellets (25 min 15,000 rpm; 39,800×g), which were re-suspended in buffer A.
All assays were conducted in 96-well plates (GF/B millipore filter plates) using buffer A, with 0.3 μM PD-134,308, for the dilutions. The CCK-2 receptor ligand was included to eliminate the contribution of this receptor subtype to the binding. For the optimal cell number determination experiments 20 pM [^125I]-BH-CCK-8S (50 μL […] solution) was incubated with a range of cell concentrations ([…] to 12.5×10^5 cells/well) in a total volume of 150 μL. Total binding of [^125I]-BH-CCK-8S was determined in the presence of 15 μL of buffer A. Non-specific binding of [^125I]-BH-CCK-8S was determined in the presence of 15 μL of 100 μM 2-naphthalenesulphonyl L-aspartyl-(2-phenethyl)amide (2-NAP: see R. A. Hull et al. Br. J. Pharmacol. 1993, 108:734-740), a CCK-1 receptor selective antagonist that is structurally unrelated to the radioligand [^125I]-BH-CCK-8S. The assay preparation was incubated for 1 h at 21±3° C., and then the assay was terminated upon rapid filtration of the preparation under reduced pressure. The loaded filters were washed three times using undiluted PBS ([…]), and then the residues were transferred to 5 mL scintillation tubes. Bound radioactivity was determined using a gamma counter (count time=1 min). […] To validate the radioligand concentration and incubation time for the assay, saturation and kinetic binding studies were also conducted (see M. F. Morton, The Pharmacological Characterization of Cholecystokinin Receptors in the Human Gastrointestinal Tract. PhD Thesis, University of London, 2000). […] The assay was then terminated according to the procedure outlined above.
(§1) 3. Data Analysis for CCK1 and CCK2 Binding Assays
The pKi values were determined using the equation of Y.-C. Cheng and W. H. Prusoff (Biochem. Pharmacol., 1973, 22(23):3099-3108):
(§2) [formula] To circumvent problems associated with computer-assisted data analysis of compounds with low affinity, the data obtained in the current study were weighted according to a method described by Morton. In brief, 100% and 0% specific binding were defined independently using total binding and binding obtained in the presence of a high concentration of the reference antagonist, 2-NAP.

[2] = target: T2, CCK2 receptor (Homo sapiens, UniProt P32239); experiment: CCK2 binding assay ([125I]-BH-CCK-8S displacement, HEKZFP membranes); settings: membranes of doxycycline-induced HEKZFP cells, 20 pM [125I]-BH-CCK-8S, 60 min at 21±3° C.; for Ki: read-out: CCK2 pKi (converted)
T2 construct: analyzed for ZFP expression as well as CCK2R induction upon addition of doxycycline to the culture medium; endogenous in cells
T2 sequence (P32239 1-447): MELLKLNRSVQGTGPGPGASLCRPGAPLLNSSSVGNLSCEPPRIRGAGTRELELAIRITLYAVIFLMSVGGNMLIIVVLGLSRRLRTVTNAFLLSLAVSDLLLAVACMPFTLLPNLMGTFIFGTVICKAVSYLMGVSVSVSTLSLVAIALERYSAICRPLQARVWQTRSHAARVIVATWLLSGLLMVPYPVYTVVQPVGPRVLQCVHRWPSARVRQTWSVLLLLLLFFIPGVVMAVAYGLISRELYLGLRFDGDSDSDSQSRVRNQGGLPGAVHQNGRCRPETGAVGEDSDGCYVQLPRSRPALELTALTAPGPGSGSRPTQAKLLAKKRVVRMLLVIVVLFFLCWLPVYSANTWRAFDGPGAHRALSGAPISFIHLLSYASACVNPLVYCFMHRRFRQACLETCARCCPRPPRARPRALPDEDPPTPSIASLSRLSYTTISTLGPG
Description: 2. CCK2 Assay Development and Data Generation
Zinc Finger Proteins (ZFP) specific for the CCK2R gene were identified by Sangamo Biosciences. The ZFP domain was fused with the herpes simplex virus VP16 activation domain, and the fusion protein was subsequently cloned into the pcDNA3 mammalian expression vector (Invitrogen, San Diego, Calif.). […] After 2 weeks of selection in culture medium containing […] Zeocin (Invitrogen), sixty drug-resistant stable clones were isolated and analyzed for ZFP expression as well as CCK2R induction upon addition of doxycycline to the culture medium.
HEKZFP cells were grown in DMEM supplemented with L-glutamine (2 mM), penicillin (50 units/mL) and streptomycin (50 μg/mL) and 10% FBS (v/v).
Membranes were prepared from the HEKZFP cells after induction. […] The thawed pellets were homogenized using a Polytron PT-10 (7×1 s). The homogenates were centrifuged for 5 min at 1500 rpm (600×g), and the resulting pellets were discarded. The supernatants were re-centrifuged in order to collect the receptor-membrane pellets (25 min 15,000 rpm; 39,800×g), which were re-suspended in buffer A.
The assay preparation was incubated for 1 h at 21±3° C., and then the assay was terminated by rapid filtration of the preparation under reduced pressure. The loaded filters were washed three times using undiluted PBS (100 μL), and then 100 μL of scintillation fluid was added to the filter plate. Bound radioactivity was determined using a Topcount (Packard BioScience, Meriden, Conn.) with a count time of 1 min. […] To validate the radioligand concentration and incubation time for the assay, saturation and kinetic binding studies were also conducted (see M. F. Morton, The Pharmacological Characterization of Cholecystokinin Receptors in the Human Gastrointestinal Tract. PhD Thesis, University of London, 2000). […] The assay was then terminated according to the procedure outlined above.
as §1
The pKi values were determined using the equation of Y.-C.
as §2

SMILES	Ki [1] [nM]	Ki [2] [nM]	CCK1 pKi [1]	CCK2 pKi [2]
CC(CNC(=O)c1ccc(Cl)cc1NS(=O)(=O)c1ccc(F)cc1F)c1ccc(Cl)c(Cl)c1 (racemic) [Example 10, (±)-4-Chloro-N-[2-(3,4-dichloro-phenyl)-propyl]-2-(2,4-difluorobenzenesulfonylamino)-benzamide]	20	7940		
CC(CNC(=O)c1ccc(I)cc1NS(=O)(=O)c1cccc2nccnc12)c1ccc(Cl)c(Cl)c1 (stereo not drawn) [Example 40, N-[2-(3,4-Dichloro-phenyl)-propyl]-4-iodo-2-(quinoxaline-5-sulfonylamino)-benzamide]	126	316		
O=C(N[C@@H](Cc1ccc(F)c(Br)c1)C(=O)O)c1ccc(I)cc1NS(=O)(=O)c1cccc2nsnc12 [Example 93, (S)-2-[2-(Benzo[1,2,5]thiadiazole-4-sulfonylamino)-4-iodo-benzoylamino]-3-(3-bromo-4-fluoro-phenyl)-propionic acid]			6.8	8.3
O=C(N[C@@H](Cc1ccc(Cl)c(Br)c1)C(=O)O)c1ccc(Br)cc1NS(=O)(=O)c1cccc2nccnc12 [Example 155, (S)-3-(3-Bromo-4-chloro-phenyl)-2-[4-bromo-2-(quinoxaline-5-sulfonylamino)-benzoylamino]-propionic acid]			7.0	8.0
O=C(O)C[C@H](Cc1ccc(Cl)c(Cl)c1)NC(=O)c1ccc(Cl)cc1NS(=O)(=O)c1cccc2nccnc12 [Example 64, (S)-3-[4-Chloro-2-(quinoxaline-5-sulfonylamino)-benzoylamino]-4-(3,4-dichloro-phenyl)-butyric acid]	1580	100		
CC(CNC(=O)c1ccc(Cl)cc1NS(=O)(=O)c1cccc2nsnc12)c1ccc(Cl)cc1 (racemic) [Example 1, (±)-2-(Benzo[1,2,5]thiadiazole-4-sulfonylamino)-4-chloro-N-[2-(4-chloro-phenyl)-propyl]-benzamide]	126	398		

The remaining lines, values ahead:

Ki [1] [nM]	Ki [2] [nM]	CCK1 pKi [1]	CCK2 pKi [2]	SMILES
3160	794			CC(C)(c1ccc(Cl)cc1)[C@H](NC(=O)c1ccc(I)cc1NS(=O)(=O)c1cccc2nsnc12)C(=O)O [Example 95, (S)-2-[2-(Benzo[1,2,5]thiadiazole-4-sulfonylamino)-4-iodo-benzoylamino]-3-(4-chloro-phenyl)-3-methyl-butyric acid]
		6.7	7.4	O=C(N[C@@H](Cc1ccc(Cl)c(Br)c1)C(=O)O)c1ccc(Cl)cc1NS(=O)(=O)c1cccc2nsnc12 [Example 145, (S)-2-[2-(Benzo[1,2,5]thiadiazole-4-sulfonylamino)-4-chloro-benzoylamino]-3-(3-bromo-4-chloro-phenyl)-propionic acid]
100	50.1			O=C(N[C@@H](Cc1ccc(Cl)c(I)c1)C(=O)O)c1ccc(I)cc1NS(=O)(=O)c1cccc2nccnc12 [Example 138, (S)-3-(4-Chloro-3-iodo-phenyl)-2-[4-iodo-2-(quinoxaline-5-sulfonylamino)-benzoylamino]-propionic acid]
79.4	1000			O=C(N[C@H](Cc1ccc(Cl)c(Cl)c1)C(=O)O)c1ccc(Cl)cc1NS(=O)(=O)c1c(F)cccc1F [Example 120, (R)-2-[4-Chloro-2-(2,6-difluoro-benzenesulfonylamino)-benzoylamino]-3-(3,4-dichloro-phenyl)-propionic acid]
126	501			O=C(N[C@@H](C(=O)O)[C@@H](O)c1ccc(Cl)c(Cl)c1)c1ccc(Cl)cc1NS(=O)(=O)c1cccc2nsnc12 (relative stereo) [Example 121, anti-2-[2-(Benzo[1,2,5]thiadiazole-4-sulfonylamino)-4-chloro-benzoylamino]-3-(3,4-dichloro-phenyl)-3-hydroxy-propionic acid]
100	63.1			O=C(N[C@@H](Cc1ccc(Cl)c(Cl)c1)C(=O)O)c1cc(Cl)c(Cl)cc1NS(=O)(=O)c1cccc2nsnc12 [Example 141, (S)-2-[2-(Benzo[1,2,5]thiadiazole-4-sulfonylamino)-4,5-dichloro-benzoylamino]-3-(3,4-dichloro-phenyl)-propionic acid]
